Test results published in patent US20220098203A1 (priority 2018, published 2022).

Experiments:
MAT2A homodimer = target: T1, MAT2A homodimer (Homo sapiens, UniProt P31153); experiment: MAT2A biochemical assay (liberated phosphate, PiColorLock Gold); settings: Table 5a; MAT2A biochemical assay; read-out: Enzyme Inhibition
T1 construct: inferred from the Ni sepharose purification and imidazole elution; made in house; host or cells: SF9 insect cells, recombinant baculovirus (Bac to Bac, pFASTBAC1)
How it was run: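 Readout is liberated phosphate (PiColorLock Gold), stoichiometric with SAM production, quantified against a potassium phosphate standard curve. Enzyme: recombinant MAT2A homodimer from Sf9, equilibrated 60 min at 25 °C with compound before 60 min reaction with substrate mix containing 500 μM ATP and 400 μM L-methionine.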

[1] = test system: SAM in HCT116 MTAP-deleted cells; experiment: Cellular assay of target engagement (SAM), LC-MS/MS; format: cell-based, human; settings: Homo sapiens, HCT-116, Table 5a, 72 h, read-out: Cell 72 h SAM Inhibition (MTAP −/−)
How it was run: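 Target engagement was read as intracellular SAM, measured by LC-MS/MS with d3-SAM as internal standard in methanol/acetic acid extracts. These came from MTAP-deleted HCT116 colon carcinoma cells exposed to inhibitor for 72 hrs.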

HCT116 MTAP-/- = experiment: Inhibition of cellular proliferation (Cell Titer Glo), HCT116 MTAP-/-; format: cell-based, human; settings: Homo sapiens, HCT-116, 96 h, Table 5a, 4 days, read-out: 4 Day Relative Growth Inhibition (MTAP −/−)
How it was run: (§1)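 After 4 days of compound exposure at 37 °C, starting 24 h after plating, growth of the MTAP-wildtype and MTAP-deleted HCT116 pair was measured as ATP luminescence (CellTiter-Glo). The proliferation index was signal minus no-cell blank, divided by blank-corrected 0.2% DMSO control.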

HCT116 MTAP+/+ = experiment: Inhibition of cellular proliferation (Cell Titer Glo), HCT116 MTAP+/+; format: cell-based; settings: Homo sapiens, HCT-116, 96 h, Table 5a, 4 days, read-out: 4 Day Relative Growth Inhibition (MTAP +/+)
How it was run: as §1

T1 sequence (P31153 whole entry): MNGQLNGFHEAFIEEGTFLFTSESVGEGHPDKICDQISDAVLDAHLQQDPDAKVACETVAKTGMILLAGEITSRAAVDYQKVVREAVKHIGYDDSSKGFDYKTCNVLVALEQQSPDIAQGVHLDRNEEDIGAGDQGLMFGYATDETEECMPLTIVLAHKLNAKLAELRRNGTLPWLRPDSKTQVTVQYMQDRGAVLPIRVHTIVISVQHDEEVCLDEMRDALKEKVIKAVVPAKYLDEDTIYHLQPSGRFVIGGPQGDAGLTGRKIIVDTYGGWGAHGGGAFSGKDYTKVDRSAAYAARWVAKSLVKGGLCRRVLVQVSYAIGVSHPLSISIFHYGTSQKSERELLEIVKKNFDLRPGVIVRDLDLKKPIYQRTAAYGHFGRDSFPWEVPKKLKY

Row | Structure (SMILES) | IC50 (MAT2A homodimer) | IC50 [1] | IC50 (HCT116 MTAP-/-) | IC50 (HCT116 MTAP+/+)
1 | Cn1cc2cc(N3Cc4ccc(OCC(F)F)nc4N(c4ccc5[nH]cc(C#N)c5c4)C3=O)ccc2n1 [Example 410, 5-(7-(2,2-difluoroethoxy)-3-(2-methyl-2H-indazol-5-yl)-2-oxo-3,4-dihydropyrido[2,3-d]pyrimidin-1(2H)-yl)-1H-indole-3-carbonitrile] | < 100 nM | < 100 nM | 100 to 1000 nM | > 1000 nM
2 | Cn1cc2cc(N3Cc4ccc(OCC(F)F)nc4N(c4ccc5oc(N)nc5c4)C3=O)ccc2n1 [Example 411, 1-(2-aminobenzo[d]oxazol-5-yl)-7-(2,2-difluoroethoxy)-3-(2-methyl-2H-indazol-5-yl)-3,4-dihydropyrido[2,3-d]pyrimidin-2(1H)-one] | < 100 nM | < 100 nM | < 100 nM | > 1000 nM
3 | Cn1cc2cc(N3Cc4ccc(OCC(F)F)nc4N(c4ccc(NC(N)=O)cc4)C3=O)ccc2n1 [Example 412, 1-(4-(7-(2,2-difluoroethoxy)-3-(2-methyl-2H-indazol-5-yl)-2-oxo-3,4-dihydropyrido[2,3-d]pyrimidin-1(2H)-yl)phenyl)urea] | < 100 nM | < 100 nM | < 100 nM | > 1000 nM
4 | CCOc1cnc2c(n1)N(c1ccc(Cl)cc1)C(=O)N(c1ccc3nn(C)cc3c1)C2 [Example 413, 1-(4-chlorophenyl)-7-ethoxy-3-(2-methyl-2H-indazol-5-yl)-3,4-dihydropteridin-2(1H)-one] | < 100 nM | < 100 nM | 100 to 1000 nM | > 1000 nM
5 | Cn1cc2cc(N3Cc4ncc(NCC(F)(F)F)nc4N(c4ccc(OC(F)F)cc4)C3=O)ccc2n1 [Example 414, 1-(4-(difluoromethoxy)phenyl)-3-(2-methyl-2H-indazol-5-yl)-7-((2,2,2-trifluoroethyl)amino)-3,4-dihydropteridin-2(1H)-one] | < 100 nM | < 100 nM | < 100 nM | > 1000 nM
6 | COc1ccc(N2Cc3ncc(NCC(F)(F)F)nc3N(c3ccc(OC(F)F)cc3)C2=O)cc1 [Example 415, 1-(4-(difluoromethoxy)phenyl)-3-(4-methoxyphenyl)-7-((2,2,2-trifluoroethyl)amino)-3,4-dihydropteridin-2(1H)-one] | < 100 nM | 100 to 1000 nM | 100 to 1000 nM | 100 to 1000 nM
7 | COc1ccc(N2Cc3ncc(NCC(F)(F)F)nc3N(c3ccc(Cl)cc3)C2=O)cc1 [Example 416, 1-(4-chlorophenyl)-3-(4-methoxyphenyl)-7-((2,2,2-trifluoroethyl)amino)-3,4-dihydropteridin-2(1H)-one] | < 100 nM | 100 to 1000 nM | 100 to 1000 nM | > 1000 nM
8 | [2H]C([2H])([2H])Oc1ccc(N2C(=O)N(c3ccc4nn(C)cc4c3)Cc3ncc(OCC)nc32)cc1 [Example 417, 7-ethoxy-1-(4-(methoxy-d3)phenyl)-3-(2-methyl-2H-indazol-5-yl)-3,4-dihydropteridin-2(1H)-one] | < 100 nM | < 100 nM | 100 to 1000 nM | 100 to 1000 nM
9 | [2H]C([2H])([2H])Oc1ccc(N2C(=O)N(c3ccc4nn(C)cc4c3)Cc3cnc(NCC)nc32)cc1 [Example 419, 7-(ethylamino)-1-(4-(methoxy-d3)phenyl)-3-(2-methyl-2H-indazol-5-yl)-3,4-dihydropyrimido[4,5-d]pyrimidin-2(1H)-one] | < 100 nM | 100 to 1000 nM | 100 to 1000 nM | 100 to 1000 nM
10 | [2H]C([2H])([2H])Oc1ccc(N2C(=O)N(c3ccc4nn(C)cc4c3)Cc3cnc(NCC(F)F)nc32)cc1 [Example 420, 7-((2,2-difluoroethyl)amino)-1-(4-(methoxy-d3)phenyl)-3-(2-methyl-2H-indazol-5-yl)-3,4-dihydropyrimido[4,5-d]pyrimidin-2(1H)-one] | < 100 nM | < 100 nM | 100 to 1000 nM | 100 to 1000 nM
